The structures appear in SMILES notation. ≈ marks a conversion by molar mass, not a printed value.

Data on 19 compounds can be found in ChEMBL document CHEMBL4321839, “Structure-activity relationships (SAR) of triazine derivatives: Promising antimicrobial agents” (Eur J Med Chem, 2020).

The subject of series [1] is Staphylococcus aureus. The series is described as follows: Antimicrobial activity against Staphylococcus aureus […] assessed as reduction in microbial growth after 24 to 48 hrs by microdilution susceptibility test. It is filed as functional.
The nature of series [2]: Cytotoxicity against African green monkey Vero cells incubated for 72 hrs by MTT assay. The following applies: chlorocebus sabaeus. It is filed as cell-based. A general note: Formazan colour is commonly taken as a measure of viable cells.
In series [3] the test system is Staphylococcus aureus. The series is described as follows: Antimicrobial activity against methicillin-resistant Staphylococcus aureus assessed as reduction in microbial growth after 24 to 48 hrs by microdilution susceptibility test. It is filed as functional. (In general: In broth dilution the organism is exposed to a series of concentrations in liquid medium.)
Series [4] relates to Escherichia coli. The experiment in a line: Antimicrobial activity against multi drug-resistant Escherichia coli assessed as reduction in microbial growth after 24 to 48 hrs by microdilution susceptibility test. The class given is functional.
Series [5] relates to Escherichia coli. The experiment in a line: Antimicrobial activity against Escherichia coli ATCC 25922 assessed as reduction in microbial growth after 24 to 48 hrs by microdilution susceptibility test. The class given is functional.
The test system of series [6] is Bacillus subtilis. The experiment in a line: Antimicrobial activity against Bacillus subtilis NCIM-2063 assessed as reduction in microbial growth after 24 hrs by CLSI based broth dilution method. The class given is functional. The note with it: NCIM-2063, 24 h.
The subject of series [7] is Escherichia coli. The series is described as follows: Antimicrobial activity against Escherichia coli NCIM-2065 assessed as reduction in microbial growth after 24 hrs by CLSI based broth dilution method. The following applies: NCIM-2065, 24 h. The class given is functional.
In another series the test system is Lacticaseibacillus casei. The experiment in a line: Antibacterial activity against Lactobacillus casei NCIM-2651 assessed as reduction in microbial growth incubated for 24 hrs by broth dilution method. It is filed as functional. The following applies: NCIM-2651, 24 h.
For series [8], the system named is Staphylococcus aureus. The series is described as follows: Antimicrobial activity against Staphylococcus aureus NCIM-2079 assessed as zone of inhibition at 5 ug after 24 hrs by disk diffusion method. It is filed as functional. The following applies: NCIM-2079, 24 h, read-out: IZ. For orientation: A growth-free zone around the sample is the usual read-out of agar diffusion tests.

In the next series the test system is Bacillus cereus. The series is described as follows: Antimicrobial activity against Bacillus cereus NCIM-2156 assessed as zone of inhibition at 5 ug after 24 hrs by disk diffusion method. The class given is functional. The following applies: NCIM-2156, 24 h, read-out: IZ.
Series [9] relates to Bacillus subtilis. The series is described as follows: Antimicrobial activity against Bacillus subtilis NCIM-2063 assessed as zone of inhibition at 5 ug after 24 hrs by disk diffusion method. The following applies: NCIM-2063, 24 h, read-out: IZ. The class given is functional.
Series [10] has as its system Pseudomonas aeruginosa. The experiment in a line: Antimicrobial activity against Pseudomonas aeruginosa NCIM-2036 assessed as zone of inhibition at 5 ug after 24 hrs by disk diffusion method. The following applies: NCIM-2036, 24 h, read-out: IZ. It is filed as functional.
Series [11] has as its system Escherichia coli. The experiment in a line: Antimicrobial activity multi drug-resistant against Escherichia coli. The class given is functional.
The subject of series [12] is Staphylococcus aureus. The experiment in a line: Antimicrobial activity methicillin-resistant against Staphylococcus aureus. The class given is functional.
In another series the test system is Candida albicans. The series is described as follows: Antifungal activity against Candida albicans NCIM-3102 at 18 to 24 hrs by CLSI based alamar blue assay. It is filed as functional.
The next series has as its system Proteus vulgaris. The experiment in a line: Antimicrobial activity against Proteus vulgaris NCIM-2027 assessed as reduction in microbial growth after 24 hrs by CLSI based broth dilution method. It is filed as functional. The following applies: NCIM-2027, 24 h.
Series [13] deals with Pseudomonas aeruginosa. The experiment in a line: Antimicrobial activity against Pseudomonas aeruginosa NCIM-2036 after 24 hrs by CLSI based broth dilution method. The class given is functional. The note with it: NCIM-2036, 24 h.
A further series has as its system Nakaseomyces glabratus. The experiment in a line: Antifungal activity against Candida glabrata NCIM-3266 at 18 to 24 hrs by CLSI based alamar blue assay. It is filed as functional.

As for `O=C(O)c1ccc(Nc2nc(Cl)nc(N3CCCCC3)n2)cc1`, the minimum inhibitory concentration (MIC) (commonly the lowest concentration found to suppress growth) in the series with Staphylococcus aureus [1] came to 25 µg/mL; in the series with Staphylococcus aureus [3], 100 µg/mL; in the series on Escherichia coli [4], 25 µg/mL; in the series with Escherichia coli [5], 25 µg/mL. Besides, it took 125 µg/mL (≈ 374 µM) to reach half-maximal cytotoxicity in series [2] (CC50 at 72 h).

For the compound `O=[N+]([O-])c1cccc(Nc2nc(NC3=NC(c4ccccc4O)=CC(c4ccccc4[N+](=O)[O-])S3)nc(Nc3cccc([N+](=O)[O-])c3)n2)c1` (stereo unspecified), the MIC in the series with Bacillus subtilis [6] is 6.25 µg/mL; in the series with Escherichia coli [7], 12.5 µg/mL.

On to `Nc1nc(Nc2nc(-c3ccc(Cl)cc3)cs2)nc(Sc2ccccc2)n1`, for which the MIC in the series on Lacticaseibacillus casei was 3.12 µg/mL.

On to `O=C(CNc1nc(NCC(=O)N/N=C/c2ccc(Cl)cc2)nc(Nc2ccc(-c3ccc(Nc4nc(NCC(=O)N/N=C/c5ccc(Cl)cc5)nc(NCC(=O)N/N=C/c5ccc(Cl)cc5)n4)cc3)cc2)n1)N/N=C/c1ccc(Cl)cc1`, for which the MIC in the series on Staphylococcus aureus [1] and in the series on Escherichia coli [5] was 12.5 to 25 µg/mL each time.

Regarding `Nc1nc(Nc2ccccc2)nc(Nc2nc(-c3ccc(Cl)cc3)cs2)n1`, in the series with Lacticaseibacillus casei, the minimal inhibitory concentration (MIC) amounted to 3.12 µg/mL.

Regarding `Cc1ccc(Nc2nc(Nc3ccc(C)cc3)nc(N3CCN(C(=S)Nc4ccnc5cc(Cl)ccc45)CC3)n2)cc1`, the zone of inhibition at 5 µg/disc lay within 16 to 17 mm in the series on Staphylococcus aureus [8], 9 to 17 mm with Bacillus cereus, 16 to 17 mm with Bacillus subtilis [9] and 9 to 17 mm in the series with Pseudomonas aeruginosa [10].

For `O=C(O)C1=CC(C2CC2)C2=C(CC(F)C3=NN=C(c4ccc([N+](=O)[O-])cc4)CN32)C1=O` (stereo unspecified), the minimum inhibitory concentration (MIC) in the series on Escherichia coli [11] is 0.25 µg/mL (≈ 0.589 µM); against Staphylococcus aureus [12] it was 0.25 to 8 µg/mL (≈ 0.589 to 18.9 µM).

As for `O=C(O)C1=CC(C2CC2)C2=C(CC(F)C3=NN=C(c4ccccc4F)CN32)C1=O` (stereo unspecified), the MIC is 0.25 µg/mL (≈ 0.629 µM) in the series with Escherichia coli [11] and 0.25 to 8 µg/mL (≈ 0.629 to 20.1 µM) against Staphylococcus aureus [12].

Take `O=C(O)c1ccc(Nc2nc(Cl)nc(NCc3ccccc3)n2)cc1`: the MIC in the series with Staphylococcus aureus [1] turned out to be 12.5 µg/mL; in the series on Staphylococcus aureus [3], 25 µg/mL; in the series with Escherichia coli [4], 100 µg/mL; with Escherichia coli [5], 50 µg/mL. For the same compound, the CC50 (commonly the concentration that lowers cell viability or growth by half) at 72 h in series [2] was determined as 225 µg/mL (≈ 632 µM).

For the compound `Clc1ccc(-c2csc(Nc3nc(N(c4ccccc4)c4ccccc4)nc(N(c4ccccc4)c4ccccc4)n3)n2)cc1`, 0.63 µg/mL (≈ 1.01 µM) was the least that counted as inhibitory in the series with Candida albicans (MIC).

Regarding `O=C1CSC(=O)N1c1nc(Nc2cccc(Cl)c2)nc(Nc2cccc(Cl)c2)n1`, the MIC in the series on Proteus vulgaris worked out at 3.91 µg/mL.

Consider `O=[N+]([O-])c1ccc(Nc2nc(Nc3ccc([N+](=O)[O-])cc3)nc(N3CCN(C(=S)Nc4ccnc5cc(Cl)ccc45)CC3)n2)cc1`, for which the zone of inhibition at 5 µg/disc in the series on Staphylococcus aureus [8] was in the range of 16 to 17 mm; in the series on Bacillus cereus it was 9 to 17 mm; in the series on Bacillus subtilis [9] it was 16 to 17 mm; in the series on Pseudomonas aeruginosa [10], 9 to 17 mm.

Take `O=C(O)C1=CC(C2CC2)C2=C(CC(F)C3=NN=C(c4cccc(Cl)c4)CN32)C1=O` (stereo unspecified): the MIC against Escherichia coli [11] and in the series with Staphylococcus aureus [12] was 8 µg/mL (≈ 19.3 µM) in each case.

Consider `O=C(CNc1nc(NCC(=O)N/N=C/c2ccc(Cl)cc2)nc(Nc2ccc(Nc3nc(NCC(=O)N/N=C/c4ccc(Cl)cc4)nc(NCC(=O)N/N=C/c4ccc(Cl)cc4)n3)cc2)n1)N/N=C/c1ccc(Cl)cc1`, for which the minimum inhibitory concentration (MIC) in the series with Staphylococcus aureus [1] and with Escherichia coli [5] was 12.5 to 25 µg/mL each time.

On to `CC1(C)S[C@@H]2[C@H](NC(=O)[C@H](N)c3ccccc3)C(=O)N2[C@H]1C(=O)O.O.O.O` [AMPICILLIN TRIHYDRATE], for which the MIC in the series with Staphylococcus aureus [1] worked out at 12.5 µg/mL; in the series on Escherichia coli [5] it was 25 µg/mL.

In the case of `C=CC1=C(C(=O)O)N2C(=O)[C@@H](NC(=O)/C(=N\OCC(=O)O)c3csc(N)n3)[C@H]2SC1` [CEFIXIME], the results for the minimal inhibitory concentration (MIC) in the series with Escherichia coli [7], with Pseudomonas aeruginosa [13] and in the series on Proteus vulgaris were 3.91 to 7.81 µg/mL, 3.12 to 6.25 µg/mL (≈ 6.89 to 13.8 µM) and 3.91 to 7.81 µg/mL, respectively.

Turning to `OC(Cn1cncn1)(Cn1cncn1)c1ccc(F)cc1F` [FLUCONAZOLE], the MIC in the series with Candida albicans and with Nakaseomyces glabratus was 0.63 µg/mL (≈ 2.06 µM) each time.

As to `C[C@H]1COc2c(N3CCN(C)CC3)c(F)cc3c(=O)c(C(=O)O)cn1c23.C[C@H]1COc2c(N3CCN(C)CC3)c(F)cc3c(=O)c(C(=O)O)cn1c23.O` [LEVOFLOXACIN], the minimum inhibitory concentration (MIC) in the series with Bacillus subtilis [6] and in the series with Escherichia coli [7] was 3.12 µg/mL each time. In addition, the zone of inhibition at 5 µg/disc in the series on Staphylococcus aureus [8] and with Bacillus subtilis [9] was 14 to 15 mm in each case.

In the case of `CN[C@@H]1[C@H](O[C@H]2[C@H](O[C@H]3[C@H](O)[C@@H](O)[C@H](N=C(N)N)[C@@H](O)[C@@H]3N=C(N)N)O[C@@H](C)[C@]2(O)C=O)O[C@@H](CO)[C@H](O)[C@H]1O` [STREPTOMYCIN], the MIC with Lacticaseibacillus casei came out at 12.5 µg/mL.
